According to patent publication US8618085B2, “Therapeutic formulations of desoxyepothilones” (Koasn Biosciences Incorporated, priority 2000, dated 2013):

Assay: Dilution stability of epothilone D formulations, visual appearance
Format: physicochemical
Design: key: remained clear; ppt: precipitation; xtal: crystallization
Details: for Visual Appearance Initial: undiluted; for Visual Appearance Saline Dilution 0 h / Visual Appearance Saline Dilution 12 h: 1:10 into 0.45% saline; for Visual Appearance RODI Dilution 0 h / Visual Appearance RODI Dilution 12 h / Visual Appearance RODI Dilution 24 h / Visual Appearance RODI Dilution 36 h / Visual Appearance RODI Dilution 48 h: 1:10 into RODI water; for Visual Appearance Saline Dilution 1:08 1 h / Visual Appearance Saline Dilution 1:10 1 h / Visual Appearance Saline Dilution 1:12 1 h: 0.9% saline
Description: The dilution stability of epothilone D formulations at 8-20 mg/mL in various formulations was examined. A stock solution of epothilone D (100 mg/mL) was prepared in ethanol. Epothilone D formulations were prepared as listed in the following tables by addition of the requisite amount of ethanol, PEG400, 10% Tween® 80, and either propylene glycol or glycerol to the appropriate volume of the epothilone D stock solution. The solubility of epothilone D in each vial was observed visually following gentle swirling. Each formulation was syringe filtered through a 0.2 micron PVDF filter. Each formulation was subsequently diluted 1:8, 1:10, or 1:12 in reverse osmosis deionized water (RODI) or 0.9% saline. Visual observations were taken upon preparation, upon dilution, and both 1 and 24 hours after incubation at ambient temperature.
The dilution stability up to 48 hours post-dilution was examined for the above formulations containg 8-11 mg/mL of epothilone D after 1:10 dilution into either RODI water or 0.45% saline, as summarized in Tables 12 and 13 below.

[1] = 11 mg/mL epo D in 10% Tween 80, 50% ethanol, 30% PEG400, 10% propylene glycol
[2] = 11 mg/mL epo D in 10% Tween 80, 60% ethanol, 20% PEG400, 10% glycerol
[3] = 12 mg/mL epo D in 10% Tween 80, 50% ethanol, 30% PEG400, 10% propylene glycol
[4] = 12 mg/mL epo D in 10% Tween 80, 60% ethanol, 20% PEG400, 10% glycerol
[5] = 16 mg/mL epo D in 10% Tween 80, 50% ethanol, 30% PEG400, 10% propylene glycol
[6] = 16 mg/mL epo D in 10% Tween 80, 60% ethanol, 20% PEG400, 10% glycerol
[7] = 20 mg/mL epo D in 10% Tween 80, 50% ethanol, 30% PEG400, 10% propylene glycol
[8] = 20 mg/mL epo D in 10% Tween 80, 60% ethanol, 20% PEG400, 10% glycerol
[9] = Table 12: 10 mg/mL epo D in 10% Tween 80, 60% ethanol, 20% PEG400, 10% glycerol
[10] = Table 13: 10 mg/mL epo D in 10% Tween 80, 50% ethanol, 30% PEG400, 10% propylene glycol

## C/C1=C/CC(/C(C)=C/c2csc(C)n2)OC(=O)C[C@H](O)C(C)(C)C(=O)[C@H](C)[C@@H](O)[C@@H](C)CCC1 (stereo partly drawn) [Epothilone D, Desoxyepothilone B]
10 mg/mL epo D in 10% Tween 80, 60% ethanol, 20% PEG400, 10% glycerol
  Visual Appearance Initial: clear
[1]
  Visual Appearance Saline Dilution 0 h: clear
  Visual Appearance Saline Dilution 12 h: xtal
  Visual Appearance RODI Dilution 0 h: clear
  Visual Appearance RODI Dilution 12 h: xtal
  Visual Appearance Initial: clear
[2]
  Visual Appearance Saline Dilution 0 h: clear
  Visual Appearance Saline Dilution 12 h: xtal
  Visual Appearance RODI Dilution 0 h: clear
  Visual Appearance RODI Dilution 12 h: xtal
  Visual Appearance Initial: clear
[3]
  Visual Appearance RODI Dilution 1:08 0 h: clear
  Visual Appearance RODI Dilution 1:08 24 h: clear
  Visual Appearance RODI Dilution 1:10 0 h: clear
  Visual Appearance RODI Dilution 1:10 24 h: clear
  Visual Appearance RODI Dilution 1:12 0 h: clear
  Visual Appearance RODI Dilution 1:12 24 h: xtal
  Visual Appearance Saline Dilution 1:08 1 h: xtal
  Visual Appearance Saline Dilution 1:10 1 h: xtal
  Visual Appearance Saline Dilution 1:12 1 h: xtal
  Visual Appearance Initial: clear
[4]
  Visual Appearance RODI Dilution 1:08 0 h: clear
  Visual Appearance RODI Dilution 1:08 24 h: clear
  Visual Appearance RODI Dilution 1:10 0 h: clear
  Visual Appearance RODI Dilution 1:10 24 h: clear
  Visual Appearance RODI Dilution 1:12 0 h: clear
  Visual Appearance RODI Dilution 1:12 24 h: xtal
  Visual Appearance Saline Dilution 1:08 1 h: xtal
  Visual Appearance Saline Dilution 1:10 1 h: xtal
  Visual Appearance Saline Dilution 1:12 1 h: xtal
  Visual Appearance Initial: clear
[5]
  Visual Appearance RODI Dilution 1:08 0 h: ppt
  Visual Appearance RODI Dilution 1:10 0 h: ppt
  Visual Appearance RODI Dilution 1:12 0 h: ppt
  Visual Appearance Saline Dilution 1:08 1 h: ppt
  Visual Appearance Saline Dilution 1:10 1 h: ppt
  Visual Appearance Saline Dilution 1:12 1 h: ppt
  Visual Appearance Initial: clear
[6]
  Visual Appearance RODI Dilution 1:08 0 h: ppt
  Visual Appearance RODI Dilution 1:10 0 h: ppt
  Visual Appearance RODI Dilution 1:12 0 h: ppt
  Visual Appearance Saline Dilution 1:08 1 h: ppt
  Visual Appearance Saline Dilution 1:10 1 h: ppt
  Visual Appearance Saline Dilution 1:12 1 h: ppt
  Visual Appearance Initial: clear
[7]
  Visual Appearance RODI Dilution 1:08 0 h: ppt
  Visual Appearance RODI Dilution 1:10 0 h: ppt
  Visual Appearance RODI Dilution 1:12 0 h: ppt
  Visual Appearance Saline Dilution 1:08 1 h: ppt
  Visual Appearance Saline Dilution 1:10 1 h: ppt
  Visual Appearance Saline Dilution 1:12 1 h: ppt
  Visual Appearance Initial: clear
[8]
  Visual Appearance RODI Dilution 1:08 0 h: ppt
  Visual Appearance RODI Dilution 1:10 0 h: ppt
  Visual Appearance RODI Dilution 1:12 0 h: ppt
  Visual Appearance Saline Dilution 1:08 1 h: ppt
  Visual Appearance Saline Dilution 1:10 1 h: ppt
  Visual Appearance Saline Dilution 1:12 1 h: ppt
  Visual Appearance Initial: clear
Table 12: 8 mg/mL epo D in 10% Tween 80, 60% ethanol, 20% PEG400, 10% glycerol
  Visual Appearance Initial: clear
Table 12: 9 mg/mL epo D in 10% Tween 80, 60% ethanol, 20% PEG400, 10% glycerol
  Visual Appearance Initial: clear
[9]
  Visual Appearance RODI Dilution 0 h: clear
  Visual Appearance RODI Dilution 12 h: clear
  Visual Appearance RODI Dilution 24 h: clear
  Visual Appearance RODI Dilution 36 h: clear
  Visual Appearance RODI Dilution 48 h: xtal
  Visual Appearance Initial: clear
Table 13: 8 mg/mL epo D in 10% Tween 80, 50% ethanol, 30% PEG400, 10% propylene glycol
  Visual Appearance Initial: clear
Table 13: 9 mg/mL epo D in 10% Tween 80, 50% ethanol, 30% PEG400, 10% propylene glycol
  Visual Appearance Initial: clear
[10]
  Visual Appearance RODI Dilution 0 h: clear
  Visual Appearance RODI Dilution 12 h: clear
  Visual Appearance RODI Dilution 24 h: clear
  Visual Appearance RODI Dilution 36 h: clear
  Visual Appearance RODI Dilution 48 h: clear
  Visual Appearance Initial: clear
